Data set [1] relates to HLA matched chronic myelogenous leukemia cell lines or CML blasts. To be noted: T cells generated with analogue peptide. On the procedure: Supernatant fluids were harvested and radioactivity was measured in a gamma counter. Percent specific lysis was determined from the following formula: 100×[(experimental release minus spontaneous release)/(maximum release minus spontaneous release)].

For the next data set, the system named is CD8+ T cells. The data set is described as follows: Gamma interferon ELISPOT, CD8+ T cells after in vitro peptide stimulation. It counts as cell-based, human. The following applies: healthy HLA A0201 donors, peptide-pulsed T2 targets.
The next data set relates to CD3+ T cells. Kind of data set: Gamma interferon ELISPOT, CD3+ T cells after in vitro peptide stimulation. Type of data set: cell-based, human. To be noted: healthy HLA A0201 donors.
For data set [2], the target named is T1, HLA-A0201 molecules on T2 cells (Homo sapiens, UniProt P04439, D140Y/D185E/D98H/E176V/E277Q/G131W/G231S/I119V/I121R/I166T/I218V/L300P/L318F/N151K/N90K/P208A/P217A/Q86G/Q94H/R138H/R169H/T345S).
T1 construct: increase in the level of surface HLA-A0201 recognizable by specific mAb such as BB7.2; endogenous in cells; host or cells: T2 cells (human, TAP-deficient, HLA-A0201+)
The data set is described as follows: T2 assay for peptide binding to HLA A0201. To be noted: for binding to HLA A0201 molecules in T2 assay: bcr-abl b3a2 and b2a2 peptides. On the procedure:
T2 cells (TAP−, HLA-A0201 +) were incubated overnight at 27° C. at 1×10E6 cells/ml in FCS-free RPMI medium supplemented with 5 μg/ml human β2 m (Sigma, St Louis, Mo.) in the absence, i.e., negative control, or presence of either a positive reference tyrosinase peptide or test peptides at various final concentrations of 50, 10, 1, and 0.1 μg/ml. Following a 4 h incubation with 5 μg/ml brefeldin A (Sigma), T2 cells were labeled for 30 min at 4° C. with a saturating concentration of anti-HLA-A2.1 (BB7.2) mAb, then washed twice. The cells then were incubated for 30 min at 4° C. with a saturating concentration of FITC-conjugated goat IgG F(ab′)2 anti-mouse Ig (Caltag, South San Francisco, Calif.), washed twice, fixed in PBS/1% paraformaldehyde and analyzed using a FACS Calibur cytofluorometer (Becton Dickinson, Immunocytometry systems, San Jose, Calif.).
The mean intensity of fluorescence (MIF) observed for each peptide concentration, after subtraction of the MIF observed without peptide, was used as an estimate of peptide binding. Stabilization assays were performed similarly. Following initial evaluation of peptide binding at time 0, cells were washed in RPMI complete medium to remove free peptides and incubated in the continuous presence of 0.5 μg/ml brefeldin-A for 2, 4, 6, and 8 hours. The amount of stable peptide-HLA-A2.1 complexes was estimated as described above by indirect immunofluorescence analysis. The half time of complexes is an estimate of the time required for a 50% reduction of the time 0 mean intensity of fluorescence value.
The immunogenicity of MHC class I-restricted peptides requires the capacity to bind and stabilize MHC class I molecules on the live cell surface. Moreover the computer prediction models above have only 60-80% predictive accuracy. Direct measurement of the strength of the interaction between the peptides and the HLA-A0201 molecule was made using a conventional binding and stabilization assay that uses the antigen-transporting deficient (TAP2-) HLA-A0201 human T2 cells. T2 cells lack TAP function and consequently are defective in properly loading class I molecules with antigenic peptides generated in the cytosol. The association of exogenously added peptides with thermolabile, empty HLA-A2 molecules stabilizes them and results in an increase in the level of surface HLA-A0201 recognizable by specific mAb such as BB7.2.

The next data set has as its target HLA A0201 (Homo sapiens, UniProt P04439, D140Y/D185E/D98H/E176V/E277Q/G131W/G231S/I119V/I121R/I166T/I218V/L300P/L318F/N151K/N90K/P208A/P217A/Q86G/Q94H/R138H/R169H/T345S). The data set is described as follows: BIMAS predicted binding score for HLA A0201. To be noted: p210F versus native CMLA2. On the procedure:
The synthetic peptide analogue segments are designed by making one or two amino acid substitutions in anchor or auxiliary residues. Although the native peptides particularly described herein are nonamers encompassing the anchor or auxiliary residues, analogues may be designed having about 70% to about 130% of the amino acids in the native peptide. In the instant invention the synthetic peptide analogues may have about 8-12 amino acids. Such substitutions are determined by a bioinformatic model system (BIMAS) which uses a matrix approach to predict binding and ranks the peptides based on predicted binding to the HLA molecule. The amino acid sequences and predicted score for binding to HLA A0201 and HLA A0301 are generated by online software BIMAS available at http://bimas.dcrt.nih.gov/cgi-bin/molbio/ken parker comboform and […] available at http://syfpeithi.bmi-heidelberg.com/.
Based on this information and by using the software of the Bioinformatics & Molecular Analysis Section (National Institutes of Health, Washington, D.C.) available at http://bimas.dcrt.nih.gov/cgi-bin/molbio/ken parker comboform. This software ranks 9-mer or 10-mer peptides on a predicted half-time dissociation coefficient from HLA class I molecules (Pinilla, et al. Curr Opin Immunol, 11(2): p. 193-202 (1999)). […]

Residues, ends and D or L forms follow the SMILES beside them.

Take `CC(C)C[C@H](NC(=O)[C@H](CC(C)C)NC(=O)[C@@H](N)CCCCN)C(=O)N[C@@H](CCC(N)=O)C(=O)N[C@@H](CCCNC(=N)N)C(=O)N1CCC[C@H]1C(=O)N[C@H](C(=O)N[C@@H](C)C(=O)N[C@H](C(=O)O)C(C)C)C(C)C` [p210C] (H-KLLQRPVAV-OH; N-terminus and C-terminus assumed): in data set [1], the “cytotoxicity against CML cells expressing b3a2 or b2a2” value is reported as “Significant cytotoxicity was generated”. For the compound KLSSKALQV (analogue peptide p210B), in the data set on CD8+ T cells, the “immune response, IFN gamma secretion” value is on record as “No immune response could be generated”. Turning to YLINKEEAV (analogue peptide b3a2 A4), the “immune response, gamma interferon secretion” value in the data set on CD3+ T cells is on record as “generated an immune response in two healthy donors”. As for TLFKQSSKV (analogue peptide p210D), the “immune response, IFN gamma secretion” value with CD8+ T cells is reported as “produced an immune response in some of the donors tested”.

Turning to `CC[C@H](C)[C@H](NC(=O)[C@H](CC(C)C)NC(=O)[C@@H](N)Cc1ccc(O)cc1)C(=O)N[C@@H](CC(N)=O)C(=O)N[C@@H](CCCCN)C(=O)N[C@@H](CCC(=O)O)C(=O)N[C@@H](CCC(=O)O)C(=O)N[C@@H](C)C(=O)N[C@@H](CC(C)C)C(=O)O` [b3a2 A3, YLINKEEAL] (H-YLINKEEAL-OH; N-terminus and C-terminus assumed), the “cytotoxicity against CML cells expressing b3a2 or b2a2” value in data set [1] is “Significant cytotoxicity was generated”. On to “SSKALQRPV (native peptide CMLA2) [reference compound]”, for which the figures for the “binding to HLA A0201 molecules in T2 assay” value in data set [2] and in data set [2] (listed as CML A2) were “weak binder” and “natural weak binder”, respectively. On to YLGATLKGV (analogue peptide WT-1 D1), for which the “binding to HLA A0201, thermostabilization on T2” value in data set [2] (WT-1 peptides) was “significantly higher level of binding to HLA-A0201 over WT1-D”. Consider YLKALQRPV (analogue peptide p210F), for which the BIMAS prediction improvement with HLA A0201 was 700 fold. Further, in data set [2], the “binding to HLA A0201 molecules in T2 assay” value is recorded as “excellent avidity for HLA A0201 molecules”. The “immune response, IFN gamma secretion” value in the data set with CD8+ T cells was “generated a more consistent and higher immune-responses”. As to KQSSKALQV (analogue peptide p210A), the “immune response, IFN gamma secretion” value in the data set on CD8+ T cells is recorded as “No immune response could be generated”. YLINKVEAL (analogue peptide b3a2 A5): the “immune response, gamma interferon secretion” value with CD3+ T cells is recorded as “generated an immune response in two healthy donors”. For the compound YLFKQSSKV (analogue peptide p210E), the “immune response, IFN gamma secretion” value with CD8+ T cells was “produced an immune response in some of the donors tested”.

Values taken from patent publication US7488718B2, “Synthetic HLA binding peptide analogues and uses thereof” (Sloan Kettering Institue for Cancer Research, priority 2003, dated 2009).
